Test system: SNU761-EV cells
Experiment: Western blotting of SLAMF7 expression, control SNU761 cells
Type: cell-based, human
Conditions: SNU761-EV (FIG. 13d)
Procedure: Cell extracts were obtained from cells grown to a density of 70-80% without any treatment, or from cells treated with vehicle DMSO or drugs at the given concentrations for 24 hours. For the extract of hepatocytes or liver cancer cells, a lysis buffer (150 mM NaCl, 1% NP-40, 50 mM Tris-HCl, 0.25% sodium deoxycholate, pH 7.4) including a protease inhibitor cocktail (GenDEPOT) was used. In addition, after washing animal liver tissue twice with PBS, SDS, Na3VO4, and protease inhibitor cocktails (GenDEPOT) were added to a lysis buffer [50 mM Tris-HCl, pH 7.4, 1% NP40, 0.25% sodium deoxycholate, 150 mM NaCl, 1 mM EDTA (based on 500 ml)], followed by treatment at 4°C for 15 minutes. […] After quantification using BCA reagent (Thermo Scientific), a 4 × sample buffer [100% glycerol 4 ml, Tris-HCl, pH 6.8, 2.4 ml, SDS 0.8 g, Bromophenol blue 4 mg, betamercaptoethanol 0.4 ml, H2O 3.1 ml (based on 10 ml)] was added, followed by boiling at 100°C for 5 minutes. […]
After 24 hours, vehicle DMSO, drug ST-1-025, or ST-5-002 was treated at the given concentrations. […] (f) After treating NK92-EV or NK92-TM4SF5 cells with DMSO or drugs ST-2-001 (1 nM), ST-3-005 (10 nM or 1 µM), ST-5-001, or ST-5-002 (100 nM or 1 µM) for 24 hours, the expression of SLAMF7 expressed on the cell surface was analyzed through immunostaining using flow cytometry. […]

Cc1ccc(C(=O)Nc2ccc(-c3cc(-c4ccc(O)cc4)no3)cc2)cc1 [ST-5-002, N-(4-(3-(4-hydroxyphenyl)isoxazole-5-yl)phenyl)-4-methylbenzamide]
expression of SLAMF7: lowered

Reference: EP4772500A1, “NOVEL ISOXAZOLE COMPOUND AS TM4SF5-SPECIFIC INHIBITOR AND USE THEREOF” (Seoul National University R&DB Foundation, priority 2023, dated 2025)
